Assay results: the supplement of paper PMC11208160

Experiment: recombinant UMI read abundance after kanamycin selection (control-corrected) (log10(CPM+1)); higher = more efficient recombination; extreme values may be limits of the assay; sequences stand for … in AGTGCAGAGAAAATCGGCCAGTTTTCTCTGCCTGCAGTCCGCATGCCGTGGGACCCCTTGGGTTCTAACCTGTTGCCTAGATTTATGCAGCGGACTGCCTTTCTCCCAAAGTGATAAACCGG…AGGTTGGTTTCACT; site = the 11-nt donor
Outline: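 In Escherichia coli, a pool of donor and donor-binding-loop pairs, each with a 12-nt UMI, was tested for the IS621 bridge recombinase. Plating was on IPTG (0.07 mM) plus kanamycin, or without selection, in two replicates. Recombinant UMIs were amplified by PCR across the donor–target junction and sequenced, and counts were reported as log10(CPM+1) after averaging and control-derived scaling.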
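Further: IS621 bridge recombinase in Escherichia coli cells against a fixed T5 target plasmid.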

Sequence | recombinant UMI read abundance (log10)
CTCATATCATGGACCGGTTTTCCCGGTAATCCGTATTTGTC (site CTCATATCTGA) | 1.5
CTCATCGCATGGACCGGTTTTCCCGGTAATCCGTATTTGCC (site CTCATCGCTGG) | 0.346
CTCCACACATGGACCGGTTTTCCCGGTAATCCGTATTTGGG (site CTCCACACTCC) | 0.0377
CTCCAGCCATGGACCGGTTTTCCCGGTAATCCGTATTTGAG (site CTCCAGCCTCT) | 0.0271
CTCCCCACATGGACCGGTTTTCCCGGTAATCCGTATTTGAG (site CTCCCAACTCT) | 0.00953
CTCCCCACATGGACCGGTTTTCCCGGTAATCCGTATTTGAG (site CTCCCCACTCT) | 0.891
CTCCCCACATGGACCGGTTTTCCCGGTAATCCGTATTTGAG (site CTCCCGACTCT) | 0.0121
CTCCCCACATGGACCGGTTTTCCCGGTAATCCGTATTTGAG (site CTCCCTACTCT) | 0
CTCCCTACATGGACCGGTTTTCCCGGTAATCCGTATTTGCG (site CTCCCTACTCA) | 0.397
CTCCCTACATGGACCGGTTTTCCCGGTAATCCGTATTTGCG (site CTCCCTACTCC) | 0.0203
CTCCCTACATGGACCGGTTTTCCCGGTAATCCGTATTTGCG (site CTCCCTACTCG) | 0.488
CTCCCTACATGGACCGGTTTTCCCGGTAATCCGTATTTGCG (site CTCCCTACTCT) | 0.55
CTCCGGCCATGGACCGGTTTTCCCGGTAATCCGTATTTGCT (site CTCCGGCCTAG) | 0.589
CTCCGTACATGGACCGGTTTTCCCGGTAATCCGTATTTGAG (site CTCCATACTCT) | 0.649
CTCCGTACATGGACCGGTTTTCCCGGTAATCCGTATTTGAG (site CTCCCTACTCT) | 0.0126
CTCCGTACATGGACCGGTTTTCCCGGTAATCCGTATTTGAG (site CTCCGTACTCT) | 0.509

Sequence | recombinant UMI read abundance (log10)
CTCCGTACATGGACCGGTTTTCCCGGTAATCCGTATTTGAG (site CTCCTTACTCT) | 0.0158
CTCCTCCCATGGACCGGTTTTCCCGGTAATCCGTATTTGAC (site CTCCTCCCTGT) | 1.49
CTCCTCGCATGGACCGGTTTTCCCGGTAATCCGTATTTGAA (site CTCCTCGCTTT) | 1.06
CTCCTCTCATGGACCGGTTTTCCCGGTAATCCGTATTTGTA (site CTACTCTCTTA) | 0.176
CTCCTCTCATGGACCGGTTTTCCCGGTAATCCGTATTTGTA (site CTCCTCTCTTA) | 2.45
CTCCTCTCATGGACCGGTTTTCCCGGTAATCCGTATTTGTA (site CTGCTCTCTTA) | 0.0102
CTCCTCTCATGGACCGGTTTTCCCGGTAATCCGTATTTGTA (site CTTCTCTCTTA) | 0
CTCCTTGCATGGACCGGTTTTCCCGGTAATCCGTATTTGTA (site CTCCTTGCTTA) | 0
CTCGAATCATGGACCGGTTTTCCCGGTAATCCGTATTTGAC (site CTAGTATCTGT) | 0.00618
CTCGAATCATGGACCGGTTTTCCCGGTAATCCGTATTTGAC (site CTCGAATCTGT) | 1.76
CTCGACACATGGACCGGTTTTCCCGGTAATCCGTATTTGCT (site CTCAACACTAG) | 1.72
CTCGACACATGGACCGGTTTTCCCGGTAATCCGTATTTGCT (site CTCCACACTAG) | 1.93
CTCGACACATGGACCGGTTTTCCCGGTAATCCGTATTTGCT (site CTCGACACTAG) | 2.25
CTCGACACATGGACCGGTTTTCCCGGTAATCCGTATTTGCT (site CTCTACACTAG) | 2.03
CTCGCACCATGGACCGGTTTTCCCGGTAATCCGTATTTGTC (site CTCGCACCTGA) | 0
CTCGTCTCATGGACCGGTTTTCCCGGTAATCCGTATTTGAC (site CTAGTATCTGT) | 0
